Test results published in article PMC10054553, “Development of the First ^18F-Labeled Radiohybrid-Based Minigastrin Derivative with High Target Affinity and Tumor Accumulation by Substitution of the Chelating Moiety” (Pharmaceutics, 2023).

Assay: Lipophilicity (logD7.4), n-octanol/PBS pH 7.4
Type: physicochemical
Procedure: Cell-based experiments and determination of lipophilicity (logD7.4) were performed as previously published. A detailed description of the in vitro experiments is provided in the Supplementary Materials.
Cell Culture. CCK-2R-expressing rat pancreatic cancer cells AR42J (CLS GmbH, Eppelheim, Germany) were cultivated in monolayers in CELLSTAR® cell culture flasks acquired from Greiner Bio-One GmbH (Frickenhausen, Germany) at 37°C in a humidified atmosphere (5% CO2) using a HERAcell 150i-Incubator (Thermo Fisher Scientific Inc., Waltham, United States). The nutrient medium RPMI 1640 medium, supplemented with 5 mM L-Gln 5 mL non-essential amino acids (100×) and 10% FCS, was used. Furthermore, a Dulbecco’s PBS solution with 0.1% EDTA (v/v) was applied to detach the cells for cell passaging. The detached cells were counted using a Neubauer hemocytometer (Paul Marienfeld, Lauda-Königshofen, Germany). In addition, all operations under sterile conditions were accomplished using a MSC-Advantage safety workbench (Thermo Fisher Scientific Inc., Waltham, United States).
Determination of IC50. AR42J cells (2.0 × 10^5 cells/well) were seeded into 24-well plates 24 ± 2 h prior to testing using 1 mL of nutrient medium (RPMI 1640, 5 mM L-Gln, 5 mL non-essential amino acids (100×), 10% FCS). Cells were incubated at 37°C in a humidified atmosphere (5% CO2).
After the removal of the medium, each well was washed with 500 μL PBS. For the cell-based assay, 200 μL of the nutrient medium (+5% BSA), [ 177Lu]Lu-DOTA-PP-F11N (25 μL, 0.3 pmol) as a radiolabeled reference and 25 μL of the peptide of interest in increasing concentrations (10 −10 to 10−4 M) were added to the cells in triplicate. Thereafter, the assay was incubated for 3 h at 37°C and the supernatant was collected. The cells were washed with 300 μL PBS and the collected supernatant fractions were unified.
After lysis of the cells with NaOH (300 μL, 1 N) for 15 min, the respective wells were washed with NaOH (300 μ L, 1 N) and both fractions were unified. The radioactivity of both the supernatant and the lysed fractions were quantified using a γ-counter (PerkinElmer Inc., Waltham, United States). The obtained data were evaluated via the GraphPad PRISM software (GraphPad Software Inc., La Jolla, United States), which calculates the half-maximal inhibitory concentration (IC50) of the peptides.
Internalization Studies. For the determination of the internalization kinetics of the various peptides, AR42J cells (3.0 × 10^5 cells/well) were seeded into polylysine-coated 24-well plates, adding 1 mL of nutrient medium. Afterwards, the cells were incubated for 24 ± 2 h at 37°C in a humidified atmosphere […]
On the day of the experiment, the medium was removed, and each well was washed with nutrient medium (300 μL). Afterwards 200 μL of nutrient medium, 25 μL of the 177Lu-labeled peptide (0.3 pmol, n = 6) and either 25 μL of nutrient medium for internalization studies ( n = 3) or 25 μL of [natLu]Lu-DOTA-PP-F11N (10 μmol) for competition studies ( n = 3) were added. Thereafter, the assay was incubated for various time points (1, 2, 4 and 6 h) at 37°C in a humidified atmosphere (5% CO2). After incubation, the cells were put on ice for at least 1 min to stop internalization kinetics and the supernatant was collected. Then, the cells were washed with an ice-cold nutrient medium (300 μL) and both fractions were unified. […] The radioactivity of the supernatant, the acid wash and the lysed fractions were quantified using a γ-counter. […]

Row | Compound | logD (pH 7.4, n-octanol/PBS pH 7.4, read-out: logD7.4) | logD7.4 (n-octanol/PBS pH 7.4)
1 | CCCC[C@H](NC(=O)[C@H](Cc1c[nH]c2ccccc12)NC(=O)CNC(=O)[C@H](Cc1ccc(O)cc1)NC(=O)[C@H](C)NC(=O)CC[C@@H](NC(=O)CC[C@@H](NC(=O)CC[C@@H](NC(=O)CC[C@@H](NC(=O)CC[C@@H](NC(=O)CC[C@@H](NC(=O)[C@@H](CNC(=O)c1ccc([Si](F)(C(C)(C)C)C(C)(C)C)cc1)NC(=O)CN1CCN(CC(=O)O)CCN(CC(=O)O)CCN(CC(=O)O)CC1)C(=O)O)C(=O)O)C(=O)O)C(=O)O)C(=O)O)C(=O)O)C(=O)N[C@@H](CC(=O)O)C(=O)N[C@@H](Cc1ccccc1)C(N)=O [[^177Lu]Lu-DOTA-rhCCK-16, metal not drawn] | -2.7 ± 0.09 | –
2 | CCCC[C@H](NC(=O)[C@H](Cc1c[nH]c2ccccc12)NC(=O)CNC(=O)[C@H](Cc1ccc(O)cc1)NC(=O)[C@H](C)NC(=O)CC[C@@H](NC(=O)CC[C@@H](NC(=O)CC[C@@H](NC(=O)CC[C@@H](NC(=O)CC[C@@H](NC(=O)CC[C@@H](NC(=O)CC[C@@H](NC(=O)CC[C@@H](NC(=O)[C@@H](CNC(=O)c1ccc([Si](F)(C(C)(C)C)C(C)(C)C)cc1)NC(=O)CN1CCN(CC(=O)O)CCN(CC(=O)O)CCN(CC(=O)O)CC1)C(=O)O)C(=O)O)C(=O)O)C(=O)O)C(=O)O)C(=O)O)C(=O)O)C(=O)O)C(=O)N[C@@H](CC(=O)O)C(=O)N[C@@H](Cc1ccccc1)C(N)=O [[^19F]F-[^177Lu]Lu-DOTA-rhCCK-18] [metal not drawn] | – | −2.69 ± 0.06
